# Test results from patent US11066369B2, “N-(pyridin-2-yl)pyridine-sulfonamide derivatives and their use in the treatment of disease” (Novartis AG, priority 2016, dated 2021).
# Where two headings read alike, the source gives them in different places.
# Target: T1, horseradish peroxidase (HRP) tagged delF508-CFTR (Homo sapiens, UniProt P13569, DEL508-508)
# T1 construct: expressed in transfected cells
# Assay: Measurement of delF508-CFTR-HRP surface expression in CFBE41o- cells;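 as to DelF508-CFTR-HRP Amax %: percent efficacy relative to reference corrector lumacaftor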
# Format: cell-based
# Settings: for Emax: surface expression Amax, read-out: DelF508-CFTR-HRP Amax %
# How it was run: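 Surface-trafficked delF508-CFTR detected via extracellular HRP tag, read as luminescence from a membrane-impermeant substrate in CFBE41o- cells. Cells pre-induced 48h with 500 ng/mL doxycycline, then exposed 24h at 37° C to a 10-point, 3-fold dilution series from 10 μM (DMSO ≤0.5%). Triplicate dose-responses fitted logistically for EC50 after per-plate normalization; fold change versus reference compound.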
# [1] = CFBE41o- cells, mean of at least two replicates, read-out: DelF508-CFTR-HRP EC50
# T1 sequence (P13569 with tags, fused parts or gaps DEL508-508): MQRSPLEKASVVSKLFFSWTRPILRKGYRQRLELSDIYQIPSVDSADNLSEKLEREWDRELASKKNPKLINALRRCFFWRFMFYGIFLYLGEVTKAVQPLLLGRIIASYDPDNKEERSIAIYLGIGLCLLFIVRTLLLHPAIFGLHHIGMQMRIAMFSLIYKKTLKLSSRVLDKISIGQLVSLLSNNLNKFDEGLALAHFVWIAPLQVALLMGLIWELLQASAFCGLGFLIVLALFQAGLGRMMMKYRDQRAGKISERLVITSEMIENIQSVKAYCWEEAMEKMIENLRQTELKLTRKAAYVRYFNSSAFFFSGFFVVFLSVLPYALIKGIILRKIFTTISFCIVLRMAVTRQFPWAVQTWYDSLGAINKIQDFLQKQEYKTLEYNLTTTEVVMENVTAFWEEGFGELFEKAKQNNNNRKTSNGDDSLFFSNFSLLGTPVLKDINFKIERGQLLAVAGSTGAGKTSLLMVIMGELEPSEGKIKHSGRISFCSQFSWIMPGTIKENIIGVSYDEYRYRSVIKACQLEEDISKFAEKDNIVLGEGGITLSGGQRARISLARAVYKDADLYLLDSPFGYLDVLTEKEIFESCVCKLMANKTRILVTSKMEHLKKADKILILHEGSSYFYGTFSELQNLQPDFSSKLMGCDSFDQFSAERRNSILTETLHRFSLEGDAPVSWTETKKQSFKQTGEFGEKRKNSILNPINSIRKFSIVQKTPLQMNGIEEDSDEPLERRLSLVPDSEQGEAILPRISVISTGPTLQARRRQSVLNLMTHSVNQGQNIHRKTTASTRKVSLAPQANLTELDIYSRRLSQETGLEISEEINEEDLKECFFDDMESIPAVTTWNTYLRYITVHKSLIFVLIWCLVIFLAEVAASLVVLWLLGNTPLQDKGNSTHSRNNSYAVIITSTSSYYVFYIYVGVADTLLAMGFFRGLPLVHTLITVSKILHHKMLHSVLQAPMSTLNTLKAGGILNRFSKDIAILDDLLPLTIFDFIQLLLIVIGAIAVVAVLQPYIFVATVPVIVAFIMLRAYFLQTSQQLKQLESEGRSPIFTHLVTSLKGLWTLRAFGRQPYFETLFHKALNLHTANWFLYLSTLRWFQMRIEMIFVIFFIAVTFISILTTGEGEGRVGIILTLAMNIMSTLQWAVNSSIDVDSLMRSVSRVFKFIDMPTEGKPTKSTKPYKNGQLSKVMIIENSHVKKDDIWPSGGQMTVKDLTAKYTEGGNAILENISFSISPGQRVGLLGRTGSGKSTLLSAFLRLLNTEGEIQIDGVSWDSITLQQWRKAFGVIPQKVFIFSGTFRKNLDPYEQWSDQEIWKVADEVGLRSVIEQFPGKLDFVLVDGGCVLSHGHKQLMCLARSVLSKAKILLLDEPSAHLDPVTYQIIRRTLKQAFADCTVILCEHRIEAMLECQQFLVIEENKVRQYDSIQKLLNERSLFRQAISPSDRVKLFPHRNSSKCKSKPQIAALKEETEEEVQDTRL
EC50 [1] [nM],Emax (CFBE41o- cells) [%],SMILES,EC50 [nM]
2310,299,"Cc1ccccc1-c1nc(NS(=O)(=O)c2cccc(N3CCCC4(CC4C(=O)O)C3)n2)ccc1C(F)(F)F (stereo not shown) [Example 441, 5-(6-(N-(6-(o-tolyl)-5-(trifluoromethyl)pyridin-2-yl)sulfamoyl)pyridin-2-yl)-5-azaspiro[2.5]octane-1-carboxylic Acid]",–
4060,47.5,"CC1(C(=O)O)CCCN(c2cccc(S(=O)(=O)Nc3ccc(C(F)(F)F)c(-c4ccccc4CO)n3)n2)C1 (stereo not shown) [Example 444, 1-(6-(N-(6-(2-(hydroxymethyl)phenyl)-5-(trifluoromethyl)pyridin-2-yl)sulfamoyl)pyridin-2-yl)-3-methylpiperidine-3-carboxylic Acid]",–
2110,278,"Cc1ccccc1-c1nc(NS(=O)(=O)c2cccc(N3CCC4(CC3)CC(C(=O)O)C4)n2)ccc1C(F)(F)F [Example 446, 7-(6-(N-(6-(o-tolyl)-5-(trifluoromethyl)pyridin-2-yl)sulfamoyl)pyridin-2-yl)-7-azaspiro[3.5]nonane-2-carboxylic Acid]",–
1490,–,"Cc1cccc(C)c1-c1nc(NS(=O)(=O)c2cccc(N3CCC[C@@](C)(C(=O)O)C3)n2)ccc1Cl [Example 448, (R)-1-(6-(N-(5-chloro-6-(2,6-dimethylphenyl)pyridin-2-yl)sulfamoyl)pyridin-2-yl)-3-methylpiperidine-3-carboxylic Acid]",–
2370,–,"COc1ccc(Cl)c(-c2nc(NS(=O)(=O)c3cccc(N4CCC[C@@H](C(=O)O)C4)n3)ccc2C(F)(F)F)c1 [Example 449, (R)-1-(6-(N-(6-(2-chloro-5-methoxyphenyl)-5-(trifluoromethyl)pyridin-2-yl)sulfamoyl)pyridin-2-yl)piperidine-3-carboxylic Acid]",–
1100,–,"Cc1ccc(Cl)cc1-c1nc(NS(=O)(=O)c2cccc(N3CCC[C@@](C)(C(=O)O)C3)n2)ccc1C(F)(F)F [Example 450, (R)-1-(6-(N-(6-(5-chloro-2-methylphenyl)-5-(trifluoromethyl)pyridin-2-yl)sulfamoyl)pyridin-2-yl)-3-methylpiperidine-3-carboxylic Acid]",–
2680,847,"Cc1ccc(Cl)cc1-c1nc(NS(=O)(=O)c2cccc(N3CCC(C)(C(=O)O)CC3)n2)ccc1C(F)(F)F [Example 451, 1-(6-(N-(6-(5-chloro-2-methylphenyl)-5-(trifluoromethyl)pyridin-2-yl)sulfamoyl)pyridin-2-yl)-4-methylpiperidine-4-carboxylic Acid]",–
1590,–,"CCC1(C(=O)O)CCCN(c2cccc(S(=O)(=O)Nc3ccc(Cl)c(-c4c(C)cccc4C)n3)n2)C1 (stereo not shown) [Example 453, 1-(6-(N-(5-chloro-6-(2,6-dimethylphenyl)pyridin-2-yl)sulfamoyl)pyridin-2-yl)-3-ethylpiperidine-3-carboxylic Acid]",–
1700,–,"CCC1(C(=O)O)CCCN(c2cccc(S(=O)(=O)Nc3ccc(C(F)(F)F)c(-c4ccccc4C)n3)n2)C1 (stereo not shown) [Example 454, 3-ethyl-1-(6-(N-(6-(o-tolyl)-5-(trifluoromethyl)pyridin-2-yl)sulfamoyl)pyridin-2-yl)piperidine-3-carboxylic Acid]",–

# Second part, the compound before the results:
SMILES,EC50 [1] [nM],Emax (CFBE41o- cells) [%],EC50 [nM]
"C[C@@]1(C(=O)O)CCCN(c2cccc(S(=O)(=O)Nc3ccc(Cl)c(-c4ccccc4C4CC4)n3)n2)C1 [Example 437, (R)-1-(6-(N-(5-chloro-6-(2-cyclopropylphenyl)pyridin-2-yl)sulfamoyl)pyridin-2-yl)-3-methylpiperidine-3-carboxylic Acid]",1560,869,–
"Cc1ccc(F)cc1-c1nc(NS(=O)(=O)c2cccc(N3CCCC4(CC4C(=O)O)C3)n2)ccc1C(F)(F)F (stereo not shown) [Example 439, 5-(6-(N-(6-(5-fluoro-2-methylphenyl)-5-(trifluoromethyl)pyridin-2-yl)sulfamoyl)pyridin-2-yl)-5-azaspiro[2.5]octane-1-carboxylic Acid]",2220,264,–
"Cc1c(F)cccc1-c1nc(NS(=O)(=O)c2cccc(N3CCCC4(CC4C(=O)O)C3)n2)ccc1C(F)(F)F (stereo not shown) [Example 440, 5-(6-(N-(6-(3-fluoro-2-methylphenyl)-5-(trifluoromethyl)pyridin-2-yl)sulfamoyl)pyridin-2-yl)-5-azaspiro[2.5]octane-1-carboxylic Acid]",2540,274,–
"CC1(C(=O)O)CCCN(c2cccc(S(=O)(=O)Nc3ccc(C(F)(F)F)c(-c4ccccc4CCO)n3)n2)C1 (stereo not shown) [Example 445, 1-(6-(N-(6-(2-(2-hydroxyethyl)phenyl)-5-(trifluoromethyl)pyridin-2-yl)sulfamoyl)pyridin-2-yl)-3-methylpiperidine-3-carboxylic Acid]",2660,94.1,–
"Cc1ccccc1-c1nc(NS(=O)(=O)c2cccc(N3CCC[C@@](C)(C(=O)O)C3)n2)ccc1Cl [Example 447, (R)-1-(6-(N-(5-chloro-6-(o-tolyl)pyridin-2-yl)sulfamoyl)pyridin-2-yl)-3-methylpiperidine-3-carboxylic Acid]",2410,–,–
"CCC1(C(=O)O)CCCN(c2cccc(S(=O)(=O)Nc3ccc(Cl)c(-c4ccccc4C)n3)n2)C1 (stereo not shown) [Example 452, 1-(6-(N-(5-chloro-6-(o-tolyl)pyridin-2-yl)sulfamoyl)pyridin-2-yl)-3-ethylpiperidine-3-carboxylic Acid]",2360,990,–
"COc1ccc(Cl)cc1-c1nc(NS(=O)(=O)c2cccc(N3CCC[C@@](C)(C(=O)O)C3)n2)ccc1C(F)(F)F [Example 455, (R)-1-(6-(N-(6-(5-chloro-2-methoxyphenyl)-5-(trifluoromethyl)pyridin-2-yl)sulfamoyl)pyridin-2-yl)-3-methylpiperidine-3-carboxylic Acid]",1770,899,–
"CCCC1(C(=O)O)CCCN(c2cccc(S(=O)(=O)Nc3ccc(Cl)c(-c4ccccc4C)n3)n2)C1 (stereo not shown) [Example 456, 1-(6-(N-(5-chloro-6-(o-tolyl)pyridin-2-yl)sulfamoyl)pyridin-2-yl)-3-propylpiperidine-3-carboxylic Acid]",1360,465,–
"CCCC1(C(=O)O)CCCN(c2cccc(S(=O)(=O)Nc3ccc(Cl)c(-c4c(C)cccc4C)n3)n2)C1 (stereo not shown) [Example 457, 1-(6-(N-(5-chloro-6-(2,6-dimethylphenyl)pyridin-2-yl)sulfamoyl)pyridin-2-yl)-3-propylpiperidine-3-carboxylic Acid]",622,702,–
"CCCC1(C(=O)O)CCCN(c2cccc(S(=O)(=O)Nc3ccc(C(F)(F)F)c(-c4ccccc4C)n3)n2)C1 (stereo not shown) [Example 458, 3-propyl-1-(6-(N-(6-(o-tolyl)-5-(trifluoromethyl)pyridin-2-yl)sulfamoyl)pyridin-2-yl)piperidine-3-carboxylic Acid]",1600,639,–
"Cc1ccccc1-c1nc(NS(=O)(=O)c2cccc(N3[C@@H]4CC[C@H]3[C@@H](C(=O)O)C4)n2)ccc1C(F)(F)F [Example 462, (1S,2S,4R)-7-(6-(N-(6-(o-tolyl)-5-(trifluoromethyl)pyridin-2-yl)sulfamoyl)pyridin-2-yl)-7-azabicyclo[2.2.1]heptane-2-carboxylic Acid]",–,108,2930
Cc1ccccc1-c1nc(NS(=O)(=O)c2cccc(N3C[C@H](C(=O)O)CC[C@@H]3C)n2)ccc1C(F)(F)F [Example 464],2430,816,–
"Cc1cccc(C)c1-c1nc(NS(=O)(=O)c2cccc(N3CCC[C@@](C)(C(=O)O)C3)n2)ccc1C(F)(F)F [Example 465, (R)-1-(6-(N-(6-(2,6-dimethylphenyl)-5-(trifluoromethyl)pyridin-2-yl)sulfamoyl)pyridin-2-yl)-3-methylpiperidine-3-carboxylic Acid]",1730,–,–
